Reference: BindingDB's records for doi:10.1016/j.bmc.2009.07.047 (4Sc, 2009)

Test: Inhibition of Aurora-B in human HCT116 cells by FACS-based endoreduplication assay

EC50, > 10 µM:
COc1cc2c(Oc3ccc(-c4nc5ccccc5s4)cc3)ncnc2cc1OCCCN1CCN(C)CC1 [2-(4-(6-methoxy-7-(3-(4-methylpiperazin-1-yl)propoxy)quinazolin-4-yloxy)phenyl)benzo[d]thiazole], COc1cc2c(Oc3ccc(-c4nc5ccccc5s4)cc3)ncnc2cc1OCCCN1CCCC1 [2-(4-(6-methoxy-7-(3-(pyrrolidin-1-yl)propoxy)quinazolin-4-yloxy)phenyl)benzo[d]thiazole], COc1cc2c(Nc3ccc(-c4nc5ccccc5s4)c(Cl)c3)ncnc2cc1OCCCN1CCN(C)CC1 [N-(4-(benzo[d]thiazol-2-yl)-3-chlorophenyl)-6-methoxy-7-(3-(4-methylpiperazin-1-yl)propoxy)quinazolin-4-amine], COc1cc2c(Nc3ccc(-c4nc5ccccc5s4)c(F)c3)ncnc2cc1OCCCN1CCN(C)CC1 [N-(4-(benzo[d]thiazol-2-yl)-3-fluorophenyl)-6-methoxy-7-(3-(4-methylpiperazin-1-yl)propoxy)quinazolin-4-amine], COc1cc2c(Nc3ccc(-c4nc5cc(Cl)ccc5s4)cc3)ncnc2cc1OCCCN1CCN(C)CC1 [N-[4-(6''-Chlorobenzo[d]thiazol-2''-yl)phenyl]-6'-methoxy-7'-[3-(4-methylpiperazin-1-yl)propoxy]quinazolin-4'-amine]
